Results on 2 compounds are retold here after article PMC9223764, “In Vitro Selection and Characterization of HIV-1 Variants with Increased Resistance to LP-40, Enfuvirtide-Based Lipopeptide Inhibitor” (International Journal of Molecular Sciences, 2022).

Where a SMILES comes first, the peptide text is derived from it. The star is where a group is joined. Palmitoyl = CCCCCCCCCCCCCCCC(=O)*

Format in all cases: cell-based
Assay [1] concerns T20-V15 pseudovirus (HIV-1 NL4-3 Env mutant). Particulars: for IC50: T20-V15 (Env selected at T20 2000 µM, P32), TZM-bl cells, 48 h, luciferase, mean ± SD, triplicate, repeated three times. As for the experimental part:
(§1) To simulate the sequence changes of viral resistance genes under different drug concentration pressures, we constructed the Env genes under different drug concentration pressures in the PCDNA3.1 vector and obtained a series of mutations. […] T20-V 6~12, T20-V 13~14, and T 20-V 15~18 were constructed at concentrations of 200 µM (P21), 400 µM (P24), and 2000 µM (P32), respectively. Similarly, the LP-40 pressure concentrations were 0.3 µM, 8 µM, 20 µM, and 200 µM, respectively, and the constructs were numbered LP40-V 1~5, LP40-V 6~8, LP40-V 9~11, and LP40-V 12~15. Resistance mutations will cause varying levels of damage to the function of the pseudoviral envelope proteins. Here, we explored how serial mutations affect the function of viral envelope proteins. Based on this problem, we performed a single round of quantitative P24-infection experiments, packaging the pseudovirus with a previously constructed series of mutant plasmids. We compared the invasion ability of the HIV-1 wild-type and mutant pseudoviruses toward target cells under the same P24 content (using the invasion capacity of each subtype as 100%).
(§2) The infectivity of HIV Env mutants and the inhibitory activities of membrane fusion inhibitors on mutants in TZM-bl cells were measured using a single-cycle infection assay as described previously. Briefly, the HIV pseudovirus was packed using an Env-coding plasmid, and pSG3ΔEnv was co-transfected into HEK293T cells. pSG3ΔEnv encodes an Env-defective, luciferase-expressing HIV-1 genome. After the pseudoviruses were harvested and filtrated, the amount of pseudoviruses was fixed via P24 antigen, and their infectivity was determined in TZM-bl cells. In order to measure the inhibitory activities of the inhibitors, inhibitors diluted serially 3-fold were mixed with an equal volume of pseudoviruses, and then 100 µL 1 × 10^5/mL TZM-bl cells were added to the mixture and incubated at 37 °C with 5% CO2 for 48 h. After that, TZM-bl cells were lysed using reporter lysis buffer, and IC50 values were calculated according to luciferase activity measured by luciferase assay reagents and a luminescence counter (Promega, Madison, WI, USA).

In assay [2] the test system is T20-V2 pseudovirus (HIV-1 NL4-3 Env mutant). Particulars: for IC50: T20-V2 (Env selected at T20 12 µM, P9), TZM-bl cells, 48 h, luciferase, mean ± SD, triplicate, repeated three times. Here is the method: as §1, §2
In assay [3] the test system is LP40-V1 pseudovirus (HIV-1 NL4-3 Env mutant). The note with it: for IC50: LP40-V1 (Env selected at LP-40 0.3 µM), TZM-bl cells, 48 h, luciferase, mean ± SD, triplicate, repeated three times. As for the experimental part:
as §1, §2

Assay [4] concerns LP40-V12 pseudovirus (HIV-1 NL4-3 Env mutant). The note with it: for IC50: LP40-V12 (Env selected at LP-40 200 µM), TZM-bl cells, 48 h, luciferase, mean ± SD, triplicate, repeated three times. Here is the method: as §1, §2
Assay [5] relates to T20-V13 pseudovirus (HIV-1 NL4-3 Env mutant). Particulars: for IC50: T20-V13 (Env selected at T20 400 µM, P24), TZM-bl cells, 48 h, luciferase, mean ± SD, triplicate, repeated three times. Here is the method:
as §1, §2

For assay [6], the system named is T20-V1 pseudovirus (HIV-1 NL4-3 Env mutant). The note with it: for IC50: T20-V1 (Env selected at T20 12 µM, P9), TZM-bl cells, 48 h, luciferase, mean ± SD, triplicate, repeated three times. As for the experimental part:
as §1, §2

Assay [7] has as its system LP40-V10 pseudovirus (HIV-1 NL4-3 Env mutant). The note with it: for IC50: LP40-V10 (Env selected at LP-40 20 µM), TZM-bl cells, 48 h, luciferase, mean ± SD, triplicate, repeated three times. As for the experimental part: as §1, §2
Assay [8] has as its system LP40-V8 pseudovirus (HIV-1 NL4-3 Env mutant). The note with it: for IC50: LP40-V8 (Env selected at LP-40 8 µM), TZM-bl cells, 48 h, luciferase, mean ± SD, triplicate, repeated three times. Here is the method: as §1, §2
Assay [9] concerns T20-V4 pseudovirus (HIV-1 NL4-3 Env mutant). Particulars: for IC50: T20-V4 (Env selected at T20 12 µM, P9), TZM-bl cells, 48 h, luciferase, mean ± SD, triplicate, repeated three times. As for the experimental part:
as §1, §2

Assay [10] has as its system T20-V17 pseudovirus (HIV-1 NL4-3 Env mutant). The note with it: for IC50: T20-V17 (Env selected at T20 2000 µM, P32), TZM-bl cells, 48 h, luciferase, mean ± SD, triplicate, repeated three times. Here is the method: as §1, §2
Assay [11] relates to LP40-V13 pseudovirus (HIV-1 NL4-3 Env mutant). The note with it: for IC50: LP40-V13 (Env selected at LP-40 200 µM), TZM-bl cells, 48 h, luciferase, mean ± SD, triplicate, repeated three times. Here is the method:
as §1, §2

For assay [12], the system named is T20-V10 pseudovirus (HIV-1 NL4-3 Env mutant). The note with it: for IC50: T20-V10 (Env selected at T20 200 µM, P21), TZM-bl cells, 48 h, luciferase, mean ± SD, triplicate, repeated three times. As for the experimental part: as §1, §2
The test system of assay [13] is T20-V3 pseudovirus (HIV-1 NL4-3 Env mutant). The note with it: for IC50: T20-V3 (Env selected at T20 12 µM, P9), TZM-bl cells, 48 h, luciferase, mean ± SD, triplicate, repeated three times. As for the experimental part: as §1, §2
The subject of assay [14] is T20-V8 pseudovirus (HIV-1 NL4-3 Env mutant). The note with it: T20-V8 (Env selected at T20 200 µM, P21); TZM-bl cells, 48 h, luciferase; mean ± SD, triplicate, repeated three times. As for the experimental part:
as §1, §2

In assay [15] the test system is LP40-V14 pseudovirus (HIV-1 NL4-3 Env mutant). Particulars: for IC50: LP40-V14 (Env selected at LP-40 200 µM), TZM-bl cells, 48 h, luciferase, mean ± SD, triplicate, repeated three times. Here is the method:
as §1, §2

In general, IC50 refers to the concentration at which inhibition is half-maximal. Regarding `CCCCCCCCCCCCCCCC(=O)NCCCC[C@H](NC(=O)[C@H](CC(=O)O)NC(=O)[C@H](CC(C)C)NC(=O)[C@H](CCC(=O)O)NC(=O)[C@H](CC(C)C)NC(=O)[C@H](CC(C)C)NC(=O)[C@H](CCC(=O)O)NC(=O)[C@H](CCC(N)=O)NC(=O)[C@H](CCC(=O)O)NC(=O)[C@H](CC(N)=O)NC(=O)[C@H](CCCCN)NC(=O)[C@H](CCC(=O)O)NC(=O)[C@H](CCC(N)=O)NC(=O)[C@H](CCC(N)=O)NC(=O)[C@H](CC(N)=O)NC(=O)[C@H](CCC(N)=O)NC(=O)[C@H](CO)NC(=O)[C@H](CCC(=O)O)NC(=O)[C@H](CCC(=O)O)NC(=O)[C@@H](NC(=O)[C@H](CC(C)C)NC(=O)[C@H](CO)NC(=O)[C@H](Cc1c[nH]cn1)NC(=O)[C@@H](NC(=O)[C@H](CC(C)C)NC(=O)[C@H](CO)NC(=O)[C@@H](NC(=O)[C@H](Cc1ccc(O)cc1)NC(C)=O)[C@@H](C)O)[C@@H](C)CC)[C@@H](C)CC)C(N)=O` [LP-40] (Ac-YTSLIHSLIEESQNQQEKNEQELLELDK(Palmitoyl)-NH2), the IC50 is more than 6.25 µM in [1]; 0.0592 ± 0.0159 µM in assay [2]; 0.0449 ± 0.00439 µM in assay [3]; more than 6.25 µM in assay [4]; 3.19 ± 0.207 µM in [5]; 0.0401 ± 0.00862 µM in assay [6]. Moreover, the IC50 in assay [7] was 2.75 ± 0.634 µM; in assay [8] it was 2.88 ± 1.07 µM; in assay [9], 0.0766 ± 0.0197 µM; in assay [10], 5.17 ± 1.02 µM; in [11], more than 6.25 µM; in assay [12], 6.08 ± 1.17 µM. The IC50 is 0.0705 ± 0.00856 µM in assay [13], more than 6.25 µM in [14] and more than 6.25 µM in assay [15]. Besides, the “Fold change in IC50” value in assay [1] (T20-V15 relative to WT NL4-3, Table 1) is on record as more than 227.43 fold; in assay [2] (T20-V2 relative to WT NL4-3, Table 1) it was 2.00 fold; in [3] (LP40-V1 relative to WT NL4-3, Table 1), 1.51 fold; in assay [4] (LP40-V12 relative to WT NL4-3, Table 1), more than 227.43 fold; in assay [5] (T20-V13 relative to WT NL4-3, Table 1), 107.32 fold; in assay [6] (T20-V1 relative to WT NL4-3, Table 1), 1.35 fold. The “Fold change in IC50” value is recorded as 92.52 fold in [7] (LP40-V10 relative to WT NL4-3, Table 1); 97.17 fold in assay [8] (LP40-V8 relative to WT NL4-3, Table 1); 2.58 fold in assay [9] (T20-V4 relative to WT NL4-3, Table 1); 174.12 fold in assay [10] (T20-V17 relative to WT NL4-3, Table 1); more than 227.43 fold in assay [11] (LP40-V13 relative to WT NL4-3, Table 1); 204.88 fold in assay [12] (T20-V10 relative to WT NL4-3, Table 1). Moreover, the “Fold change in IC50” value in [13] (T20-V3 relative to WT NL4-3, Table 1) is 2.38 fold; in assay [15] (LP40-V14 relative to WT NL4-3, Table 1), more than 227.43 fold.
For Enfuvirtide, the 50% inhibitory concentration (IC50) in assay [1] was 2.09 ± 0.248 µM; in assay [2], 0.147 ± 0.0394 µM; in assay [3], 0.0598 ± 0.0163 µM; in assay [4], 5.87 ± 0.978 µM; in [5] it was 4.01 ± 0.571 µM; in assay [6], 0.0577 ± 0.00723 µM. Besides, the IC50 in assay [7] worked out at 1.26 ± 0.264 µM; in assay [8], 1.15 ± 0.137 µM; in [9] it was 0.0531 ± 0.0149 µM; in assay [10], 2.89 ± 0.882 µM; in assay [11], 5.17 ± 2.46 µM; in [12], 3.34 ± 0.433 µM. The IC50 in assay [13] came to 0.0789 ± 0.0121 µM; in [14], 5.28 ± 1.1 µM; in assay [15], 4.91 ± 2 µM.
